Laboratory results published in patent US8273717B2, “Inhibitor for perioperative blood sugar elevation” (Otsuka Pharmaceutical Factory, Inc., priority 2003, dated 2012).

How the values were obtained:
Format in all cases: in vivo, rat
blood sugar level [1] = test: Test Example 6: effect of branched amino acids in blood sugar elevation model by glucose (blood sugar level); conditions: Pentobarbital anesthesia; for time at which blood sugar level reached the maximum (peak): after the start of test, 5 weight % glucose-1.8% amino acid i.v.
Method: A blood sugar elevation model was made by intravenous administration of glucose to the living body, and the effect was examined with parallel administration of leucine, isoleucine and valine in the above-mentioned model.
(§1) Rats were pre-treated in a similar manner to Test Example 4, and anesthesia in the rats was maintained for 3 hours by intravenous continuous administration of Pentobarbital in a similar manner to Test Example 4. […] Blood was collected (100 μL) through the catheter for administration of aqueous amino acid solution before the start of administration, 30 minutes, 90 minutes, and 180 minutes after the start of administration respectively. And then, the blood sugar level and serum insulin value were determined according to Test Example 1.

blood sugar level [2] = test: Test Example 8: inhibition of blood sugar elevation by oral isoleucine during sugar tolerance, non-anesthesia vs anesthesia; conditions: 0.5 g/10 mL/kg isoleucine orally, 3 g glucose/kg orally 30 minutes later
Method: Non-anesthesia group: rats under overnight fasting conditions were divided into groups by body weight, blood was collected from a tail vein (Pre Value). To a control group and a sample solution group was orally administered 0.5 g/10 mL/kg of OTSUKA distilled water (water for injection; manufactured by OTSUKA PHAMACEUTICAL FACTORY, INC.) and 0.5 g/10 mL/kg of aqueous isoleucine solution, respectively. 50% OTSUKA sugar solution (glucose injection (glucose 100 g/200 mL); manufactured by OTSUKA PHAMACEUTICAL FACTORY, INC.; hereinafter also simply called glucose solution) was administered orally so as to be 3 g glucose/kg 30 minutes after the administration of the sample solution. Blood was collected from the tail vein 30 minutes, 60 minutes, 90 minutes, and 120 minutes after the start of sugar solution administration, and the blood sugar level was determined. Each blood sugar level was considered as 30 minutes value, 60 minutes value, 90 minutes value, and 120 minutes value, respectively in the non-anesthesia group.
Anesthesia group: rats under overnight fasting conditions were divided into groups by body weight, blood was collected from a tail vein (Pre Value). […] The blood sugar level of the blood collected from the tail vein 30 minutes, 60 minutes, 90 minutes, and 120 minutes after the administration of sugar solution was determined. […]

serum insulin value = test: Test Example 6: serum insulin value with glucose+leucine
Method: The serum insulin value was determined by ELISA Method (manufactured by Mevcodia Co.).
as §1

blood sugar level [3] = test: Test Example 7: blood sugar decrease by oral administration of leucine, anesthesia vs non-anesthesia; conditions: 0.3 g/10 mL/kg leucine suspension orally
Method: Non-anesthesia group: rats under overnight fasting conditions were divided into groups by body weight, and blood was collected from a tail vein (Pre Value). Shortly after that, 10 mL/kg of distilled water was orally administered to control group, and 0.3 g/10 mL/kg of leucine suspension to a sample solution group. Blood was collected from the tail vein 90 minutes after the administration of distilled water and the sample solution (90 minutes value).
Anesthesia group: rats under overnight fasting conditions were divided into groups by body weight, and blood was collected from a tail vein (Pre Value). After the blood collection, 10 mL/kg of distilled water was orally administered to a control group, and 0.3 g/10 mL/kg of leucine suspension to a sample solution group. Saflow indwelling needle was kept in the tail vein 30 minutes after the sample solution was administered. After that, anesthesia was introduced by rapid intravenous administration of 30 mg/kg Pentobarbital Sodium. Thereafter, a gastight syringe disposed in micro syringe pump and an indwelling needle were connected through an extension tube, and anesthesia was maintained by continuous intravenous administration of 30 mg/kg/hr. Blood was collected from the tail vein opposite to that wherein the indwelling needle was kept 60 minutes after introduction of anesthesia (90 minutes value).
In addition, blood was collected in a tube for hematocrit determination. After collected blood was centrifuged, plasma fraction was recovered and the blood sugar level was determined according to Test Example 1.
The changed value of the blood sugar level was calculated by deducting Pre value of each rat plasma from 90 minutes value of each rat plasma.

| SMILES | time at which blood sugar level reached the maximum (peak) (blood sugar level [1]) | area under the blood sugar level curve (AUC, 0-120 min) compared to control group (blood sugar level [2]; anesthesia group (Somnopentyl i.p.)) | area under the blood sugar level curve (AUC, 0-120 min) compared to control group (blood sugar level [2]; non-anesthesia group) | blood sugar level compared with glucose administration group (blood sugar level [1]; 90 and 180 minutes after the start of the test) | increase of serum insulin value under anesthesia relative to non-anesthesia (serum insulin value; 30 minutes) | increase of serum insulin value under anesthesia relative to non-anesthesia (serum insulin value; 90 minutes) | increase of serum insulin value under anesthesia relative to non-anesthesia (serum insulin value; 180 minutes) | decrease extent of blood sugar level in the anesthesia group compared to non-anesthesia group (blood sugar level [3]) | changed value of the blood sugar level (90 minutes value minus Pre value) (blood sugar level [3]; anesthesia group (Pentobarbital Sodium)) | changed value of the blood sugar level (90 minutes value minus Pre value) (blood sugar level [3]; non-anesthesia group) |
| --- | --- | --- | --- | --- | --- | --- | --- | --- | --- | --- |
| CC[C@H](C)[C@H](N)C(=O)O [isoleucine] | 30 min | significant decrease | decreased compared to that of the control group |  |  |  |  |  |  |  |
| CC(C)C[C@H](N)C(=O)O [leucine] | 30 min |  |  | lower significantly | 1.7 times | 9.9 times | 16.2 times | 2.7 times | decrease in blood sugar level was recognized | decrease in blood sugar level was recognized |
